According to patent US7217730B2, “Method for the use of pyranoindole derivatives to treat infection with Hepatitis C virus” (Wyeth, priority 2002, dated 2007):

Molecular target: T1, NS5B from the BK strain (genotype 1b) (Hepatitis C virus genotype 1b, UniProt P26663)
T1 construct: NS5B from the BK strain (genotype 1b) is expressed in E. coli as a protein in which the 21 C-terminal amino acids are replaced; made in house; host or cells: E. coli
Test: Hepatitis C polymerase inhibition, NS5B BK strain, 33P-GTP filter assay
Assay type: biochemical
Settings: Table 1A; for inhibition at 20 µM: 20 μM compound, read-out: HCV pol % inh at 20 μM; for IC50: NS5B BK strain, read-out: HCV pol BK IC50
Summary of the method: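 E. coli-expressed NS5B (BK, genotype 1b) with the 21 C-terminal residues replaced by a linker-His6 tag was preincubated with compound for 15 min at room temperature. It then extended a hairpin-primed heteropolymeric RNA (~3 nM, ~760 nt product) with α-[33P]-GTP for 2 h at 22–25° C. The reaction was stopped with EDTA, and incorporated label was counted on filters.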

T1 sequence (P26663 2420-2989): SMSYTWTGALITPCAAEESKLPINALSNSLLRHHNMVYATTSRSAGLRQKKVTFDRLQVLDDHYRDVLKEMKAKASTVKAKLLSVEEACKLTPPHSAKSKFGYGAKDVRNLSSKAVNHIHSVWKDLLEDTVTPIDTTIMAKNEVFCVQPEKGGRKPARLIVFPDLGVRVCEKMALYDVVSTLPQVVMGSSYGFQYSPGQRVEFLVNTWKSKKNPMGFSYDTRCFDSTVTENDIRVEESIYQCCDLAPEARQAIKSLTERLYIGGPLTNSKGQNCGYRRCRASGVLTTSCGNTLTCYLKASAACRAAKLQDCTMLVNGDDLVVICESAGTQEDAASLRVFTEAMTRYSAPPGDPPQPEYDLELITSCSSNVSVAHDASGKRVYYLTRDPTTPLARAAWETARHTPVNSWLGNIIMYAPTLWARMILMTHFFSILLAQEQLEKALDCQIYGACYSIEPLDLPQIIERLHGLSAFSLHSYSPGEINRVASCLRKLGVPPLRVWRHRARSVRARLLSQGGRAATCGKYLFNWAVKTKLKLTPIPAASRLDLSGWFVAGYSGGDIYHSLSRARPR

CCCC1(CC(=O)O)OCCc2c1[nH]c1c(F)ccc(-c3ccc(OC)cc3)c21 (centres unmarked) [Example 149, [8-fluoro-5-(4-methoxyphenyl)-1-propyl-1,3,4,9-tetrahydropyrano[3,4-b]indol-1-yl]acetic acid]
inhibition at 20 µM: < 11%
IC50: 16000 nM

CCCC1(CC(=O)O)OCCc2c1[nH]c1c(F)ccc(-c3ccc(C(F)(F)F)cc3)c21 (centres unmarked) [Example 150, {8-fluoro-1-propyl-5-[4-(trifluoromethyl)phenyl]-1,3,4,9-tetrahydropyrano[3,4-b]indol-1-yl}acetic acid]
inhibition at 20 µM: < 37%
IC50: 9000 nM

CCCC1(CC(=O)O)OCCc2c1[nH]c1c(F)ccc(-c3cccc(N)c3)c21 (centres unmarked) [Example 151, [5-(3-aminophenyl)-8-fluoro-1-propyl-1,3,4,9-tetrahydropyrano[3,4-b]indol-1-yl]acetic acid]
inhibition at 20 µM: 34%
IC50: > 20000 nM

CCCC1(CC(=O)O)OCCc2c1[nH]c1c(F)ccc(Br)c21 (centres unmarked) [Example 152, (5-bromo-8-fluoro-1-propyl-1,3,4,9-tetrahydropyrano[3,4-b]indol-1-yl)acetic acid]
inhibition at 20 µM: 87%
IC50: 1000 nM

CCCC1(CC(=O)O)OCCc2c1[nH]c1c(C)ccc(Br)c21 (centres unmarked) [Example 153, (5-bromo-8-methyl-1-propyl-1,3,4,9-tetrahydropyrano[3,4-b]indol-1-yl)acetic acid]
inhibition at 20 µM: 93%
IC50: 300 nM

CC1(CC(=O)O)OCCc2c1[nH]c1c(Cl)cc(Cl)c(Cl)c21 (centres unmarked) [Example 154, (5,6,8-trichloro-1-methyl-1,3,4,9-tetrahydropyrano[3,4-b]indol-1-yl)acetic acid]
inhibition at 20 µM: 22%
IC50: 22400 nM

CCC1(CC(=O)O)OCCc2c1[nH]c1c(Cl)cc(Cl)c(Cl)c21 (centres unmarked) [Example 155, (5,6,8-trichloro-1-ethyl-1,3,4,9-tetrahydropyrano[3,4-b]indol-1-yl)acetic acid]
inhibition at 20 µM: 84%
IC50: 470 nM

CCCC1(CC(=O)O)OCCc2c1[nH]c1c(Cl)cc(Cl)c(Cl)c21 (centres unmarked) [Example 156, (5,6,8-trichloro-1-propyl-1,3,4,9-tetrahydropyrano[3,4-b]indol-1-yl)acetic acid]
inhibition at 20 µM: 88%
IC50: 80 nM

CC(C)C1(CC(=O)O)OCCc2c1[nH]c1c(Cl)cc(Cl)c(Cl)c21 (centres unmarked) [Example 157, (5,6,8-trichloro-1-isopropyl-1,3,4,9-tetrahydropyrano[3,4-b]indol-1-yl)acetic acid]
inhibition at 20 µM: 89%
IC50: 600 nM

CCCCC1(CC(=O)O)OCCc2c1[nH]c1c(Cl)cc(Cl)c(Cl)c21 (centres unmarked) [Example 158, (1-butyl-5,6,8-trichloro-1,3,4,9-tetrahydropyrano[3,4-b]indol-1-yl)acetic acid]
inhibition at 20 µM: 91%
IC50: 280 nM

C/C=C/CCC1(CC(=O)O)OCCc2c1[nH]c1c(Cl)cc(Cl)c(Cl)c21 (centres unmarked) [Example 159, {5,6,8-trichloro-1-[(3E)-pent-3-enyl]-1,3,4,9-tetrahydropyrano[3,4-b]indol-1-yl}acetic acid]
inhibition at 20 µM: 36%
IC50: > 20000 nM

O=C(O)CC1(c2ccccc2)OCCc2c1[nH]c1c(Cl)cc(Cl)c(Cl)c21 (centres unmarked) [Example 160, (5,6,8-trichloro-1-phenyl-1,3,4,9-tetrahydropyrano[3,4-b]indol-1-yl)acetic acid]
inhibition at 20 µM: 15%
IC50: > 20000 nM

O=C(O)CC1(c2ccc(C(=O)O)cc2)OCCc2c1[nH]c1c(Cl)cc(Cl)c(Cl)c21 (centres unmarked) [Example 161, 4-[1-(carboxymethyl)-5,6,8-trichloro-1,3,4,9-tetrahydropyrano[3,4-b]indol-1-yl]benzoic acid]
inhibition at 20 µM: 74%
IC50: 300 nM

O=C(O)CC1(c2ccoc2)OCCc2c1[nH]c1c(Cl)cc(Cl)c(Cl)c21 (centres unmarked) [Example 162, [5,6,8-trichloro-1-(3-furyl)-1,3,4,9-tetrahydropyrano[3,4-b]indol-1-yl]acetic acid]
inhibition at 20 µM: 73%
IC50: 2400 nM

CCC1(CC(=O)O)OCCc2c1[nH]c1c(F)cc(C)c(Br)c21 (centres unmarked) [Example 164, (5-bromo-1-ethyl-8-fluoro-6-methyl-1,3,4,9-tetrahydropyrano[3,4-b]indol-1-yl)acetic acid]
inhibition at 20 µM: 77%
IC50: 2000 nM

CCCC1(CC(=O)O)OCCc2c1[nH]c1c(F)cc(C)c(Br)c21 (centres unmarked) [Example 165, (5-bromo-8-fluoro-6-methyl-1-propyl-1,3,4,9-tetrahydropyrano[3,4-b]indol-1-yl)acetic acid]
inhibition at 20 µM: 89%
IC50: 600 nM

Cc1cc(F)c2[nH]c3c(c2c1Br)CCOC3(CC(=O)O)C(C)C (centres unmarked) [Example 166, (5-bromo-8-fluoro-1-isopropyl-6-methyl-1,3,4,9-tetrahydropyrano[3,4-b]indol-1-yl)acetic acid]
inhibition at 20 µM: 55%
IC50: 3700 nM

CCCCC1(CC(=O)O)OCCc2c1[nH]c1c(F)cc(C)c(Br)c21 (centres unmarked) [Example 167, (5-bromo-1-butyl-8-fluoro-6-methyl-1,3,4,9-tetrahydropyrano[3,4-b]indol-1-yl)acetic acid]
inhibition at 20 µM: 80%
IC50: 3000 nM

Cc1cc(F)c2[nH]c3c(c2c1Br)CCOC3(CC(=O)O)c1ccccc1 (centres unmarked) [Example 168, (5-bromo-8-fluoro-6-methyl-1-phenyl-1,3,4,9-tetrahydropyrano[3,4-b]indol-1-yl)acetic acid]
inhibition at 20 µM: 4%
IC50: > 10000 nM

Cc1cc(F)c2[nH]c3c(c2c1Br)CCOC3(CC(=O)O)c1ccc(C(=O)O)cc1 (centres unmarked) [Example 169, 4-[5-bromo-1-(carboxymethyl)-8-fluoro-6-methyl-1,3,4,9-tetrahydropyrano[3,4-b]indol-1-yl]benzoic acid]
inhibition at 20 µM: 82%
IC50: 220 nM

CCCCC1(CC(=O)O)OCCc2c1[nH]c1c(F)cc(C)c(C#N)c21 (centres unmarked) [Example 170, (1-butyl-5-cyano-8-fluoro-6-methyl-1,3,4,9-tetrahydropyrano[3,4-b]indol-1-yl)acetic acid]
inhibition at 20 µM: 53%
IC50: 1000 nM

Cc1cc(F)c2[nH]c3c(c2c1C#N)CCOC3(CC(=O)O)c1ccccc1 (centres unmarked) [Example 171, (5-cyano-8-fluoro-6-methyl-1-phenyl-1,3,4,9-tetrahydropyrano[3,4-b]indol-1-yl)acetic acid]
inhibition at 20 µM: 3%
IC50: > 10000 nM

Cc1cc(F)c2[nH]c3c(c2c1C#N)CCOC3(CC(=O)O)c1ccc(C(=O)O)cc1 (centres unmarked) [Example 172, 4-[1-(carboxymethyl)-5-cyano-8-fluoro-6-methyl-1,3,4,9-tetrahydropyrano[3,4-b]indol-1-yl]benzoic acid]
inhibition at 20 µM: 74%
IC50: 1700 nM

Cc1cc(Cl)c2[nH]c3c(c2c1Br)CCOC3(C)CC(=O)O (centres unmarked) [Example 173, (5-bromo-8-chloro-1,6-dimethyl-1,3,4,9-tetrahydropyrano[3,4-b]indol-1-yl)acetic acid]
inhibition at 20 µM: 19%
IC50: > 5000 nM

CCC1(CC(=O)O)OCCc2c1[nH]c1c(Cl)cc(C)c(Br)c21 (centres unmarked) [Example 174, (5-bromo-8-chloro-1-ethyl-6-methyl-1,3,4,9-tetrahydropyrano[3,4-b]indol-1-yl)acetic acid]
inhibition at 20 µM: 70%
IC50: > 5000 nM

CCCC1(CC(=O)O)OCCc2c1[nH]c1c(Cl)cc(C)c(Br)c21 (centres unmarked) [Example 175, (5-bromo-8-chloro-6-methyl-1-propyl-1,3,4,9-tetrahydropyrano[3,4-b]indol-1-yl)acetic acid]
inhibition at 20 µM: 84%
IC50: 500 nM

Cc1cc(Cl)c2[nH]c3c(c2c1Br)CCOC3(CC(=O)O)C(C)C (centres unmarked) [Example 176, (5-bromo-8-chloro-1-isopropyl-6-methyl-1,3,4,9-tetrahydropyrano[3,4-b]indol-1-yl)acetic acid]
inhibition at 20 µM: 49%
IC50: > 5000 nM

CCCCC1(CC(=O)O)OCCc2c1[nH]c1c(Cl)cc(C)c(Br)c21 (centres unmarked) [Example 177, (5-bromo-1-butyl-8-chloro-6-methyl-1,3,4,9-tetrahydropyrano[3,4-b]indol-1-yl)acetic acid]
inhibition at 20 µM: 70%
IC50: 4000 nM

C/C=C/CCC1(CC(=O)O)OCCc2c1[nH]c1c(Cl)cc(C)c(Br)c21 (centres unmarked) [Example 178, {5-bromo-8-chloro-6-methyl-1-[(3E)-pent-3-enyl]-1,3,4,9-tetrahydropyrano[3,4-b]indol-1-yl}acetic acid]
inhibition at 20 µM: < 32%
IC50: > 5000 nM

Cc1cc(Cl)c2[nH]c3c(c2c1Br)CCOC3(CC(=O)O)c1ccccc1 (centres unmarked) [Example 179, (5-bromo-8-chloro-6-methyl-1-phenyl-1,3,4,9-tetrahydropyrano[3,4-b]indol-1-yl)acetic acid]
inhibition at 20 µM: 15%
IC50: > 5000 nM

Cc1cc(Cl)c2[nH]c3c(c2c1Br)CCOC3(CC(=O)O)c1ccc(C(=O)O)cc1 (centres unmarked) [Example 180, 4-[5-bromo-1-(carboxymethyl)-8-chloro-6-methyl-1,3,4,9-tetrahydropyrano[3,4-b]indol-1-yl]benzoic acid]
inhibition at 20 µM: 92%
IC50: 810 nM

Cc1cc(Cl)c2[nH]c3c(c2c1C#N)CCOC3(C)CC(=O)O (centres unmarked) [Example 181, (8-chloro-5-cyano-1,6-dimethyl-1,3,4,9-tetrahydropyrano[3,4-b]indol-1-yl)acetic acid]
inhibition at 20 µM: 14%
IC50: > 5000 nM

CCC1(CC(=O)O)OCCc2c1[nH]c1c(Cl)cc(C)c(C#N)c21 (centres unmarked) [Example 182, (8-chloro-5-cyano-1-ethyl-6-methyl-1,3,4,9-tetrahydropyrano[3,4-b]indol-1-yl)acetic acid]
inhibition at 20 µM: 55%
IC50: > 5000 nM

CCCC1(CC(=O)O)OCCc2c1[nH]c1c(Cl)cc(C)c(C#N)c21 (centres unmarked) [Example 183, (8-chloro-5-cyano-6-methyl-1-propyl-1,3,4,9-tetrahydropyrano[3,4-b]indol-1-yl)acetic acid]
inhibition at 20 µM: 88%
IC50: 590 nM
